From BindingDB's records for doi:10.1002/cbic.201402673 (University of Groningen, 2015)

Each compound was assayed against T1, Thiamine transporter ThiT (Lactococcus lactis subsp. cremoris (strain MG1363), UniProt A2RI47) (assay: Intrinsic-Fluorescence Titration).
T1 sequence (A2RI47 whole entry): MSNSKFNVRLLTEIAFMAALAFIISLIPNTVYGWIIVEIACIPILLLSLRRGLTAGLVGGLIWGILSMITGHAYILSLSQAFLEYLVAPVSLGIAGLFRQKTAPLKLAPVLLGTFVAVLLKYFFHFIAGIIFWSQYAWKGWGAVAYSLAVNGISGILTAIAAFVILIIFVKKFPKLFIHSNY
Method: Purified ThiT was diluted in buffer E to a concentration of ~50 nM in a final volume of 800 µL. The substrates were added in 1 µL steps. Using an excitation wavelength of 280 nm, emission was measured at 350 nm and 25 °C. After each addition of substrate, 10 s were allowed for equilibration and mixing, and the signals were averaged over 15 s.

| Structure (SMILES) | Kd [nM] |
| --- | --- |
| Cc1ncc(Cc2cccc(CO)c2)c(N)n1 [(3-((4-Amino-2-methylpyrimidin-5-yl)methyl)phenyl)methanol (6)] | 528 |
| Cc1ncc(Cc2cccc(CCO)c2)c(N)n1 [2-(3-((4-Amino-2-methylpyrimidin-5-yl)methyl)phenyl)ethanol (8)] | 266 |
| Cc1ncc(Cc2csc(C=O)c2C)c(N)n1 [4-((4-Amino-2-methylpyrimidin-5-yl)methyl)-3-methylthiophene-2-carbaldehyde (9)] | 7.44 |

These reach a lower Kd. Values come first.

| Kd [nM] | Structure (SMILES) |
| --- | --- |
| 5.21 | Cc1ncc(Cc2csc(CO)c2C)c(N)n1 [(4-((4-Amino-2-methylpyrimidin-5-yl)methyl)-3-methylthiophen-2-yl)methanol (7)] |
| 4.23 | Cc1ncc(Cc2csc(CCO)c2C)c(N)n1 [3-Deazathiamine] |
